Experimental data from publication PMC10178848, “Modulating fast skeletal muscle contraction protects skeletal muscle in animal models of Duchenne muscular dystrophy” (The Journal of Clinical Investigation, 2023).
Like-named read-outs stand apart in the source and are kept apart here.

Columns and labels:
[1] = molecular target: T1, MAPKAPK2 (Homo sapiens, UniProt P49137); experiment: KINOMEscan scanEDGE; format: binding; conditions: 20 uM
T1 construct: purchased Eurofins DiscoverX (KINOMEscan; SAFETYscan E/IC50 ELECT)

[2] = molecular target: 78 proteins, including GPCR, ion channel, kinases, nuclear hormone receptors, and transporters; experiment: SAFETYscan E/IC50 ELECT off-target panel (whole panel); conditions: read-out: IC50 in all SAFETYscan assays
Experimental: (§1) The specificity of EDG-5506 for fast skeletal myosin over other, unrelated proteins was confirmed using two off-target binding and activity screens. […] A second off-target panel (SAFETYscan E/IC50 ELECT, Eurofins DiscoverX) tested in vitro enzyme activity against 78 proteins, including GPCR, ion channel, kinases, nuclear hormone receptors, and transporters. In all assays, the IC50 of EDG-5506 was more than 10 μM (Supplemental Data File 1).

[3] = molecular target: T2, ABL1-nonphosphorylated (Homo sapiens, UniProt P00519); experiment: KINOMEscan scanEDGE; format: binding; conditions: 20 uM
T2 construct: purchased Eurofins DiscoverX (KINOMEscan; SAFETYscan E/IC50 ELECT)

[4] = system: mdx lumbrical muscle; experiment: Ex vivo mdx lumbrical muscle contraction, calcium and clots; set-up: species or system mouse
Experimental: Intracellular calcium quantification and isometric injury were described previously ([31]). Lumbrical muscles were transferred to a custom-built chamber and mounted horizontally to a force transducer (model 400A, Aurora Scientific) at 25°C. Sarcomere length was adjusted to 2.5 μm by microscope. Contraction was elicited with 0.2-millisecond stimuli and injury via 1-second stimuli at 125 Hz.
For fluorescence experiments, a 75W xenon lamp was used with wavelengths selected using a diffraction grating monochromator (model DeltaRAM, Photon Technology International). Muscles were loaded with mag-fura-2 AM (10 μM in Tyrode) for 30 minutes at 25°C, excited at 344 and 375 nm (bandwidth 10 nm), and passed through a 510 nm emission filter (bandwidth 40 nm). Fluorescence responses were recorded alternately during 32 twitch contractions at 20-second intervals; background fluorescence was subtracted, and the response was averaged. High-affinity fura-2 was used to detect membrane breaches between tetanic contractions. Muscles were incubated with fura-2 AM (15 μM in Tyrode) for 30 minutes before 12 injurious contractions, separated by 1 minute with (10/s) alternating excitation wavelengths of 340 and 375 nm (bandwidth 1.25 nm) with a 510 nm emission filter (bandwidth 40 nm) and preloading background subtraction. Still and video images were captured using a digital camera (Nikon D750).

[5] = system: young mdx mice; experiment: 3-week dosing of young (weaning) mdx mice, soleus histology; format: in vivo, mouse; conditions: post-weaning mdx mice, 3 weeks
Excerpt: C57BL/6 (stock no. 000664), C57BL/10J (stock no. 000665, control for mdx experiments), C57BL/10ScSn-Dmd^mdx/J (mdx, stock no. 001801), and D2.B10 (DBA/2-congenic) Dmd^mdx (DBA/2J mdx, stock no. 013141) mice were from The Jackson Laboratory. Sprague-Dawley rats were purchased from Charles River Laboratories. For ex vivo experiments, mice were 10–16 weeks old. For in situ experiments, mice were 8–14 weeks of age. For in vivo chronic dosing studies, mdx and DBA/2J mdx were 4–5 weeks of age at study start. Dosing was via a 10 mL/kg suspension (1% methyl cellulose, 0.1% Tween 80 in water). For studies in 14-day-old preweaning mice, PO dosing was via syrup suspension (3 mg/kg/d). […]
For sterile muscle injury, mice were anesthetized with isoflurane and 50 μL cardiotoxin (12 × 10^–6 M, 217503, Millipore) injected in the TA muscle. […] 8 μm cryosections were cut and stained with H&E. For each analysis, more than 10 slides (per condition/group) containing 6 muscle sections/sample were used, and myofibers in the injured area were counted and measured with a Mirax digital scanner and HALO software ([68]). […] Image analysis was performed using ImarisX64 software (Bitplane AG), and fiber sizing was calculated using minimal Feret’s diameter ([69]). […] Fiber type, size, and central nucleation were quantified with analysis via SMASH ([70]) and ImageJ (NIH). […]

[6] = molecular target: T3, AR (Homo sapiens, UniProt P10275); experiment: SAFETYscan NHR Nuclear Translocation; format: cell-based; set-up: dose or concentration left out as unconfirmed
T3 construct: purchased Eurofins DiscoverX (KINOMEscan; SAFETYscan E/IC50 ELECT)
Experimental: as §1

[7] = molecular target: Rabbit Cardiac myofibrils; experiment: Myofibril ATPase, rabbit cardiac; format: biochemical; conditions: 25% MHCα, 75% MHC β, at pCa 50
[8] = molecular target: T4, ERBB2 (Homo sapiens, UniProt P04626); experiment: KINOMEscan scanEDGE; format: binding; conditions: 20 uM
T4 construct: purchased Eurofins DiscoverX (KINOMEscan; SAFETYscan E/IC50 ELECT)

[9] = system: EDL muscles from mdx mice; experiment: Ex vivo eccentric (lengthening) contraction injury, mdx EDL; set-up: species or system mouse
Experimental: Isometric force was measured ex vivo in mouse EDL and soleus muscle. EDL muscle eccentric injury was based on published protocols ([30]), with degree of lengthening and stimulation modified to yield a uniform drop in mdx isometric and peak force over 10 contractions. After isolation, muscle was mounted via 5-0 suture to a combination servomotor/force transducer (300C-LR, Aurora) between 2 electrodes connected to a stimulator (701C, Aurora) in Ringers solution at 27°C with continuously infused CO2/O2 gas mixture. Experiments were recorded with custom MATLAB software via a National Instruments PCIe-6321 board and 2090A BNC connector. Muscles were preincubated for 60 minutes with DMSO (final 0.1%)/compound before 10 eccentric contractions, 1 minute apart, with 100 milliseconds of isometric stimulation at 100 Hz and active lengthening of 0.1 L0 at a rate of 2 L0/s. After lengthening, muscles were held at 1.1 L0 with stimulation for 100 milliseconds (Supplemental Figure 2A).

[10] = molecular target: T5, MET (Homo sapiens, UniProt P08581); experiment: KINOMEscan scanEDGE; format: binding; conditions: 20 uM
T5 construct: purchased Eurofins DiscoverX (KINOMEscan; SAFETYscan E/IC50 ELECT)

[11] = molecular target: T6, FGFR3 (Homo sapiens, UniProt P22607); experiment: KINOMEscan scanEDGE; format: binding; conditions: 20 uM
T6 construct: purchased Eurofins DiscoverX (KINOMEscan; SAFETYscan E/IC50 ELECT)
T6 sequence (P22607 23-806): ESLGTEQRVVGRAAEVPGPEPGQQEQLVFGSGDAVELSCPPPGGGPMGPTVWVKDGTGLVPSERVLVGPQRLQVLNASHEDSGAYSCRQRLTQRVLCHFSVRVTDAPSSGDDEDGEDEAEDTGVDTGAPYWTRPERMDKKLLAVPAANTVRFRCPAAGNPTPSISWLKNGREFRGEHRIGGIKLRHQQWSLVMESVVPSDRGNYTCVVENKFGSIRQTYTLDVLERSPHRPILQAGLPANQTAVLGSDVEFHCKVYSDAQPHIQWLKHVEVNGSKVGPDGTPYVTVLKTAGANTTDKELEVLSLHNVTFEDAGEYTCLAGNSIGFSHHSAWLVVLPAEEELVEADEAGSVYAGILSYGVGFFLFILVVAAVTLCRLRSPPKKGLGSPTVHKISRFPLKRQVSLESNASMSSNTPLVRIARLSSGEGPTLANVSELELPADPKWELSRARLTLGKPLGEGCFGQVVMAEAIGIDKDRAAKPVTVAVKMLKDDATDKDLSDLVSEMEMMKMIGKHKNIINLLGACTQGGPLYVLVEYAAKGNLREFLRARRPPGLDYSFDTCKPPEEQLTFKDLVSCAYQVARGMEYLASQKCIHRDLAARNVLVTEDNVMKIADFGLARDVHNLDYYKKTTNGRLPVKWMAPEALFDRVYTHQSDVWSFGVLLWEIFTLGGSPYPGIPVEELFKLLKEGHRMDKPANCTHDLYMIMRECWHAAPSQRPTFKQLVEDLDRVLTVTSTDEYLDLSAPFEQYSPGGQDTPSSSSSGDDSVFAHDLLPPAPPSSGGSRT

T3 sequence (P10275 whole entry): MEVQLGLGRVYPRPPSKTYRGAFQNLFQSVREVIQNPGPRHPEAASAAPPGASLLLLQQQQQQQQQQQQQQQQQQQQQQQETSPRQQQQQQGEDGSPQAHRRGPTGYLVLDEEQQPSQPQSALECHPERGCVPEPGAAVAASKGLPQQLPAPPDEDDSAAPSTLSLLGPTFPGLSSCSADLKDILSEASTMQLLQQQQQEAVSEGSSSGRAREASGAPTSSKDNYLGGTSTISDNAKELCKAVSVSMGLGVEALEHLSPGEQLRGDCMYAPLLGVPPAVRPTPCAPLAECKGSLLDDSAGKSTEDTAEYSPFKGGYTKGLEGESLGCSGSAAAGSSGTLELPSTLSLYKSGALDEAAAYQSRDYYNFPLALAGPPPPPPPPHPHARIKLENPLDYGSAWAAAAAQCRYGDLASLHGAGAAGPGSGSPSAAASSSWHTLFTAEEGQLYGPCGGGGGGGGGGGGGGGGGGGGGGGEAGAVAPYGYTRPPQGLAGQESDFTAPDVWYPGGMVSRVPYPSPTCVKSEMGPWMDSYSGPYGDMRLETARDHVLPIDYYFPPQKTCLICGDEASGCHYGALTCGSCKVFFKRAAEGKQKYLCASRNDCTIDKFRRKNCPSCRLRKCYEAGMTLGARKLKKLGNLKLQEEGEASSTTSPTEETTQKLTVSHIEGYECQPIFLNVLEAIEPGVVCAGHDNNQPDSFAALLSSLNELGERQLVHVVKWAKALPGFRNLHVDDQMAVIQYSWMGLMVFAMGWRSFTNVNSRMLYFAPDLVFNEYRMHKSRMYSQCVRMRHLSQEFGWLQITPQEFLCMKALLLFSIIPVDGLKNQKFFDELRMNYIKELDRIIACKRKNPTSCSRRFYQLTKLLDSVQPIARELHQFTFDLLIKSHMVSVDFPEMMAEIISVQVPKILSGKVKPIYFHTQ
T1 sequence (P49137 whole entry): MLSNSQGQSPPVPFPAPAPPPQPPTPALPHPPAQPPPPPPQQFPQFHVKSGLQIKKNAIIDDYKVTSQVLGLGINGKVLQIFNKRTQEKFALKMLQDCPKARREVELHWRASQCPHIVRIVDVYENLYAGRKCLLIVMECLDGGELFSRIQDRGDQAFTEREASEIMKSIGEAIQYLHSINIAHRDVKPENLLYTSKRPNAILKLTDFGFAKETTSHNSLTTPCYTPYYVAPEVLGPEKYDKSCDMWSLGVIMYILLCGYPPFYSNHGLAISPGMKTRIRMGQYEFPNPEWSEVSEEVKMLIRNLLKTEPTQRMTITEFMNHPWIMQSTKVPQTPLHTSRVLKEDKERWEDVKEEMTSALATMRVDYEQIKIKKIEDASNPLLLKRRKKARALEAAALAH
T4 sequence (P04626 23-1255): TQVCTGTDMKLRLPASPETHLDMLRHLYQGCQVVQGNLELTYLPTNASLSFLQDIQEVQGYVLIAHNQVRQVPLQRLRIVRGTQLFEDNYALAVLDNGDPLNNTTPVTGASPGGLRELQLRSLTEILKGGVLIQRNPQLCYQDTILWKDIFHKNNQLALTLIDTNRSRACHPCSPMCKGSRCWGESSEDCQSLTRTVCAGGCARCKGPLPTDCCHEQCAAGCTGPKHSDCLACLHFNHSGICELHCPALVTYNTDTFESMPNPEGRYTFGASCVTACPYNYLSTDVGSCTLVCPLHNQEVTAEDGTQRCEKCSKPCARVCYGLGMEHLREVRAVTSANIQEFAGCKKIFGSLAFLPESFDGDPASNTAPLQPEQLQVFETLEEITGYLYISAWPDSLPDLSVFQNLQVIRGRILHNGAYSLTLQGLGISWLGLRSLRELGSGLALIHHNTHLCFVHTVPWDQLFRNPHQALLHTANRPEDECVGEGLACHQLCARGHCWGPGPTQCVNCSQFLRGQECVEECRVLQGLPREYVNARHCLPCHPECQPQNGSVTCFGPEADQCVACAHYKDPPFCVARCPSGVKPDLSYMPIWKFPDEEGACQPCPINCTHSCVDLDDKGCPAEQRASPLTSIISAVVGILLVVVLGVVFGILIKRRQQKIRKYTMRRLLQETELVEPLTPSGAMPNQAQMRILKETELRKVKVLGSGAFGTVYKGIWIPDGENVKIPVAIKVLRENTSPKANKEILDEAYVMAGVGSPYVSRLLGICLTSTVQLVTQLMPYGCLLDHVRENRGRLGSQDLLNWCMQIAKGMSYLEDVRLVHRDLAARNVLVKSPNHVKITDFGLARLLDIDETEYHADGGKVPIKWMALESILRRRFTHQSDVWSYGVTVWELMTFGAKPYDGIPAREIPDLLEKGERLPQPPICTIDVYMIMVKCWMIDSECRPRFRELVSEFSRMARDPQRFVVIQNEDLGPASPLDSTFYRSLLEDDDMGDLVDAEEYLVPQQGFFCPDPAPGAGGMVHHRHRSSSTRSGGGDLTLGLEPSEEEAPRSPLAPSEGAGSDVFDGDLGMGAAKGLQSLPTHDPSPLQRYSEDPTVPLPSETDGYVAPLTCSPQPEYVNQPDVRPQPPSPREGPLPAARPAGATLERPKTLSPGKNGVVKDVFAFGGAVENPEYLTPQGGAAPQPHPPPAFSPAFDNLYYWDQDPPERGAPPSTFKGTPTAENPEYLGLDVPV
T2 sequence (P00519 whole entry): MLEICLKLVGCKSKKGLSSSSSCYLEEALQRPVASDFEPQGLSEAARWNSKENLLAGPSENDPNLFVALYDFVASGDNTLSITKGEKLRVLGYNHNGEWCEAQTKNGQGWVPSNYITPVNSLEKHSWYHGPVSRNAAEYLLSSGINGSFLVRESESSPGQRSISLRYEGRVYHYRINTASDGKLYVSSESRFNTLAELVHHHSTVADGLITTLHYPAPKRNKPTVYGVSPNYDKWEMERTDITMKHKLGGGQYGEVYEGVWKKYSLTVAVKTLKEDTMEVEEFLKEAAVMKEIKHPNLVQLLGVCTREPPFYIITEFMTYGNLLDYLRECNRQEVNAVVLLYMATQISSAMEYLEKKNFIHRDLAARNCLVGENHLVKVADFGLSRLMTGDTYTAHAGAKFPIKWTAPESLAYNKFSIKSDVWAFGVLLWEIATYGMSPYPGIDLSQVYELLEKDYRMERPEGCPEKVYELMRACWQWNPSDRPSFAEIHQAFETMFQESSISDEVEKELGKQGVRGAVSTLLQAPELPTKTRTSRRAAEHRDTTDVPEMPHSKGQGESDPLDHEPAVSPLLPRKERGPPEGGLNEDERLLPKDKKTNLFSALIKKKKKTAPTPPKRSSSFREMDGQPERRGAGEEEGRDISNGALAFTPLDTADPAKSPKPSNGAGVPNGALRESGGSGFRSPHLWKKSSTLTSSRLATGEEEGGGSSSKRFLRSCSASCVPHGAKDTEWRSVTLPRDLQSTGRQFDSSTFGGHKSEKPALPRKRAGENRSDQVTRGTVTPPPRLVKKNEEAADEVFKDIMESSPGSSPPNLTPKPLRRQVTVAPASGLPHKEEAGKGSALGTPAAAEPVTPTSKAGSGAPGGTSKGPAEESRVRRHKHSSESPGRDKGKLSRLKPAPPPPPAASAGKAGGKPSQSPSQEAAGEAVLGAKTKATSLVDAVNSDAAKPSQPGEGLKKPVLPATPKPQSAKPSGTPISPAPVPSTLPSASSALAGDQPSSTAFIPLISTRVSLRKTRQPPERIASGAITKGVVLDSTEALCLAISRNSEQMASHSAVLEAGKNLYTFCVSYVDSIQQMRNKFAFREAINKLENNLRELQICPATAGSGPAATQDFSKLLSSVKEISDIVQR

O=c1ccc(-c2cnc(OCC(F)(F)F)nc2)nn1Cc1cncc(F)c1 [EDG-5506]
binding, % of control [1]: 100 % of control | IC50 [2]: > 10 µM | binding, % of control [3]: 96 % of control | reduction of specific tension before injury ([4]; 0.3 μM): 15% | strength drop with contraction ([4]; mdx lumbrical): completely prevented | clot formation (hypercontraction) ([4]; mdx lumbrical, after 12 contractions): completely prevented clot formation | concentration of maximal efficacy ([4]; mdx lumbrical, repeated tetanic contraction): 0.3 µM | central nucleation in soleus [5]: decreased central nucleation | Emax ([6]; read-out: Max Response (%) (Agonist)): 0% | Emax ([6]; read-out: Max Response (%) (Antagonist)): 0% | IC50 [7]: > 100 µM | binding, % of control [8]: 76 % of control | inhibition at 1 µM ([9]; Mus musculus, at ≤1 μM (near maximal protection), read-out: inhibition of isometric force): ~15% | strength drop with repeated lengthening contractions ([9]; mdx EDL ex vivo): dramatically lowered | concentration giving near maximal protection from strength drop ([9]; mdx EDL, 10 lengthening contractions, 1-hour preincubation): ≤ 1 µM | binding, % of control [10]: 55 % of control | binding, % of control [11]: 96 % of control
